Values joined by “and” are separate entries in the source; they are usually repeats but may differ in a detail not shown here. Equal entries are not always repeated. “Also recorded” adds a separate entry of the source. Square brackets hold non-standard residues; d marks the D form. Peptide text beside a SMILES is read from it. dPhe(4-Cl) = N[C@H](Cc1ccc(Cl)cc1)C(=O)O; d2Nal = N[C@H](Cc1ccc2ccccc2c1)C(=O)O; dCit = NC(=O)NCCC[C@@H](N)C(=O)O; d3Pal = N[C@H](Cc1cccnc1)C(=O)O
Assays:
[1] = test system: Hereford crossbred heifers; test: Cetrorelix pre-treatment before kisspeptin-10 in low-progesterone heifer model (Example 1); assay type: in vivo, cattle
Experimental: Methods: The human Kisspeptin-10 (hKP-10) peptide (YNWNSFGLRF-NH2; SEQ ID NO: 1) was custom synthetized at >95% of purity (MW: 1318.44 g/mol) by GenScript USA Inc, Piscataway, NJ, USA. The sequence is based on the predicted C-terminal region (112-121-NH2) of human metastin (Gen Bank accession #AY117143) and has been previously used in cattle. The peptide was previously tested for solubility and was dissolved in ultrapure water at 10 mg/mL.
The heifers were maintained in outdoor pens at the University of Saskatchewan Goodale Research Farm (52° north and 106° west). Heifers were fed barley silage and had hay and water ad libitum. A mineral salt block was available to heifers throughout the study period. All procedures were performed in accordance with Canadian Council on Animal Care and were approved by the University of Saskatchewan Protocol Review Committee.
Immediately after ultrasound examination, heifers were given PGF2a twice at an interval of 12-hours. The low-progesterone bovine model described previously (Leonardi et al. 2019) was used to test the hypothesis. Briefly, the ovaries were examined daily by ultrasonography to detect ovulation. Three days after ovulation, follicles ≥5 mm in diameter in both ovaries were ablated by transvaginal ultrasound-guided follicle aspiration, inducing the emergence of new follicular wave 1.5 days after the procedure (Bergfelt et al. 1994). After follicular ablation, a progesterone device was placed in the vagina (CIDR; Zoetis). The day of wave emergence (Day 0) was defined as the day when the follicle of wave was first recorded (4 to 5 mm in diameter) with concurrent increase in diameter. Heifers were given PGF2α im on Days 3.5 and 4 (i.e., 8 and 8.5 days after ovulation) to cause luteolysis, however, the CIDR devices were left in place until Day 12 to maintain a low-progesterone milieu sufficient to prevent spontaneous ovulation. On Day 6, an indwelling jugular catheter was placed as described (Bergfelt et al. 1997) and heifers were assigned randomly to three groups (n=5 per group): 1) 3 iv doses of 15 mg human kisspeptin-10 at 1 h intervals (Kp10 group), 2) pretreatment with single im dose of Cetrorelix acetate (20 μg/Kg of body weight, GnRH antagonist—Sigma #C5249 diluted in 5% D-Manitol w/v, Sigma #M4125) followed 3 h later with 3 iv doses of 15 mg human kisspeptin-10 at 1 h intervals (Cetrorelix group), or 3) 3 iv doses of normal saline at 1 h intervals (Control group). Following treatment (on Day 6), ovarian ultrasound examinations were performed daily until the end of the experiment to detect ovulation of the extant dominant follicle (i.e., dominant follicle present at the time of treatment) or of the dominant follicle originating from a subsequent wave. The progesterone device was withdrawn on Day 12 (i.e., thirteen days after insertion) and ultrasound examinations were continued until ovulation was detected.
Blood samples and hormone assays: Serial blood samples on the day of treatment were collected at 15 minute intervals from −30 to 150 min (0 min=time of first hKP-10 or saline injection) using the indwelling jugular catheter. All blood samples were collected in heparinized tubes (Vacutainer, BD, Franklin Lakes NJ, USA). Immediately after sampling, tubes were centrifuged at 1,500×g for 15 min, and plasma was separated and stored at −20° C.
The plasma samples from both experiments were analyzed for LH and progesterone concentration at the University of Wisconsin (Madison, WI, USA) in Dr O. J. Ginther's Research Laboratory. Plasma LH concentrations were measured with a validated radioimmunoassay for cattle (Bolt et al. 1990) with modifications as reported Ginther et al. 1999). Briefly, LH concentrations were measured in duplicate using USDA-bLH-B-6 for ^125I-iodination and for preparing reference standards, and USDA-309-684P as the primary antibody (National Hormone and Pituitary Program, Torrance, CA, USA). […]

[2] = test system: GnRH-induced plasma LH levels and ovulation; test: GnRH challenge in heifers pre-treated with GnRH antagonists: plasma LH and ovulation (Example 10); assay type: in vivo, cattle; settings: for Plasma LH response to GnRH challenge: heifers pre-treated with antagonist 60 minutes before GnRH injection
Experimental: Methods: Pubertal heifers (n=10) with a functional CL were selected at the Federal University of Santa Maria. Heifers were administered an intramuscular (i/m) injection of prostaglandin F2a analog (PGF; Lutalyse 5 ml or Estrumate 2 ml) to induce CL regression. Heifers were randomly placed into 4 treatment groups at the time of PGF injection: Trt1 (n=2, 3 mg of Abarelix); Trt2 (n=2, 3 mg of Degarelix), Trt3 (n=2, 3 mg of Relugolix) and Trt 4 (n=4; Cetrorelix 3 mg). Heifers were treated with these GnRH antagonists 1.5 days (36 hr) after the PGF injection and the GnRH antagonist treatment time point was defined as −60 mins. Heifers were treated with GnRH ([…] of Fertagyl i/m) at 0 mins to induce ovulation. Jugular venipuncture plasma samples were collected every 60 minutes for 3 hours (from −60 min to 120 minutes, with t=0 min when GnRH is administered). Plasma samples were kept at 4C overnight and LH analysis was performed the next day using a bovine-specific ELISA commercial kit. Transrectal ultrasonography was conducted to the time of GnRH injection (Time 0 hr) and 2 days later (48 hr after GnRH injection) to record the size of dominant follicle and to detect ovulation after treatment.

[3] = Day 6 of wave, low progesterone, Kp10 3 x 15 mg iv, Cetrorelix 20 μg/Kg im 3 h before Kp10
[4] = Kp10 3 x 15 mg iv, Cetrorelix 20 μg/Kg im 3 h before Kp10
[5] = individual heifers, 3 mg antagonist 60 min before GnRH
[6] = individual heifers, after GnRH injection, 3 mg antagonist at −60 min

## CC(=O)N[C@H](Cc1ccc2ccccc2c1)C(=O)N[C@H](Cc1ccc(Cl)cc1)C(=O)N[C@H](Cc1cccnc1)C(=O)N[C@@H](CO)C(=O)N[C@@H](Cc1ccc(O)cc1)C(=O)N[C@H](CCCNC(N)=O)C(=O)N[C@@H](CC(C)C)C(=O)N[C@@H](CCCNC(=N)N)C(=O)N1CCC[C@H]1C(=O)N[C@H](C)C(N)=O [Cetrorelix, N-acetyl-3-(2-naphthyl)-D-alanyl-4-chloro-D-phenylalanyl-3-(3-pyridyl)-D-alanyl-L-seryl-L-tyrosyl-D-citrullyl-L-leucyl-L-arginyl-L-prolyl-D-alaninamide] (Ac-[d2Nal][dPhe(4-Cl)][d3Pal]SY[dCit]LRP[dA]-NH2)
[1]; [3]
  Dominant follicle diameter 24 h after treatment: 13.38 ± 0.55 mm
  Dominant follicle diameter 48 h after treatment: 12.91 ± 0.55 mm
  Dominant follicle diameter at time of treatment: 13.01 ± 0.68 mm
[1]; Day 6 of wave, low progesterone, Kp10 3 x 15 mg iv, Cetrorelix single im 20 μg/Kg 3 h before Kp10
  Emergence of a new follicular wave after treatment: 3.40 ± 0.75 days and 3.4 days
[1]; Day 6 of wave, low progesterone, Kp10 3 x 15 mg iv, Cetrorelix single im 20 μg/Kg 3 h before Kp10, listed as Cetrorelix acetate
  Emergence of a new follicular wave after treatment: about 3.40±0.75 days
[1]; Day of follicular wave
  Day of ovulation of new dominant follicles after CIDR removal (Day 12): 15
[1]; [4]
  Heifers in which a new wave emergence occurred: 5 of 5
  Number of ovulations after CIDR removal on Day 12: Extant dominant follicle: 0/5
  Number of ovulations after CIDR removal on Day 12: New dominant follicle: 5/5
  Plasma LH concentration / kisspeptin-induced LH surge: suppressed the kisspeptin-induced LH surge
[1]; after kisspeptin and GnRH antagonist treatment
  Time by which the dominant follicle entered the regression phase: ≤ 72 h
[2]
  Plasma LH response to GnRH challenge: did not register an increase in LH
[2]; listed as cetrorelix
  Plasma LH response to GnRH challenge: LH levels remained unchanged; also recorded: block the GnRH-induced LH release
[2]; heifers, 3 mg antagonist 60 min before GnRH
  Ovulation (Yes/No) within 48 hr of GnRH treatment: No
[2]; heifers, 3 mg antagonist 60 min before GnRH, listed as cetrorelix
  Ovulation (Yes/No) within 48 hr of GnRH treatment: prevent GnRH-induced ovulations
[2]; heifers, after GnRH injection
  Plasma LH concentration at 60 minute, group Mean: 12.83 mIU/ml
  Plasma LH concentration at 120 minute, group Mean: 12.18 mIU/ml
[2]; heifers, time of 3 mg GnRH antagonist injection
  Plasma LH concentration at −60 minute, group Mean: 11.63 mIU/ml
[2]; heifers, time of GnRH injection
  Plasma LH concentration at 0 minute, group Mean: 10.07 mIU/ml
[2]; [5]
  Dominant follicle diameter (mm) 48 hr after GnRH Injection: 9.8 mm and 12 mm
  Dominant follicle diameter (mm) at GnRH injection: 7.5 mm and 10.5 mm
[2]; [6]
  Plasma LH concentration at 60 minute: 18.33 mIU/ml and 22.72 mIU/ml and 5.12 mIU/ml and 5.15 mIU/ml
  Plasma LH concentration at 120 minute: 23.74 mIU/ml and 15.04 mIU/ml and 4.60 mIU/ml and 5.32 mIU/ml
[2]; individual heifers, time of 3 mg GnRH antagonist injection, 60 mins before GnRH
  Plasma LH concentration at −60 minute: 24.29 mIU/ml and 12.03 mIU/ml and 5.24 mIU/ml and 4.96 mIU/ml
[2]; individual heifers, time of GnRH injection, 3 mg antagonist at −60 min
  Plasma LH concentration at 0 minute: 18.10 mIU/ml and 12.23 mIU/ml and 5.29 mIU/ml and 4.66 mIU/ml

Reference: patent US20260034192A1 (University of Saskatchewan, priority 2022, published 2026)
